# Experimental data reported in US20220273673A1, “BONE-BINDING COMPOUNDS” (BRIGHAM YOUNG UNIVERSITY, priority 2019, published 2022).
# Tests used:
# [1] = Hydroxyapatite (HA) binding assay, HPLC of supernatant; conditions: after 60 minutes of incubation with HA
# Procedure: To analyze the reduction in peak height due to HA binding, 100 μL of supernatant was withdrawn at predetermined time points and analyzed by HPLC.
# [2] = system: MC3T3-E1 cells; assay: Alkaline phosphatase activity assay (p-nitrophenyl phosphate) in osteoblasts; assay type: cell-based; conditions: 5 μM; osteogenic media; without rhBMP-2
# Procedure: A p-nitrophenyl phosphate assay was performed for alkaline phosphatase activity (Sigma-Aldrich) and normalized to day-3 cells grown in osteogenic media and α-MEM media. Assays were performed in triplicate with two independent repeats.
# [3] = system: J774.2 monocyte macrophage lineage cells; assay: In vitro protein prenylation assay (mevalonate pathway); assay type: cell-based; conditions: 25 μM or equimolar concentration; 24 hours
# Procedure: The assay used was as described by Ali N et al., Small GTPases 6(4):202-11 (2015). Briefly, this involved incubation of cells with the compounds for 24 hours at increasing doses of drugs and then an in vitro prenylation assay being performed on protein extracts. Immunoblotting (western blotting) was carried out to identify an exemplar unprenylated protein, with a band indicating drug activity affecting the mevalonate pathway.
# [4] = system: cultured cells; conditions: Schindeler et al. 2015; cited from earlier work
SMILES,Reduction in peak height on HA incubation (in words) [1],"Alkaline phosphatase expression / osteogenic potential, compound alone [2]","Effect on protein prenylation (unprenylated protein band, western blot) [3]","Pro-osteogenic activity, potentiation of rhBMP-2 [4]"
CCCCCN(CCCCC)CCC[C@@H](C)[C@H]1CC[C@H]2[C@@H]3[C@H](OCCCN)C[C@@H]4C[C@H](OCCCN)CC[C@]4(C)[C@H]3CC(OCCCN)[C@]12C (some centres unmarked) [CSA-90],"no, or very low, reduction in peak height",increased alkaline phosphatase expression,did not induce a noticeable or comparable protein prenylation effect,pro-osteogenic activity
NCCCC(O)(P(=O)(O)O)P(=O)(O)O [alendronate],,,potent effect on protein prenylation,
